The record followed here is US11053260B2, “Tri-cycle compound and applications thereof” (FUJIAN COSUNTER PHARMACEUTICAL CO., LTD., priority 2017, dated 2021).

The test system of this assay is HBV. Kind of assay: HBV in vitro test in quantitative qPCR assay (HBV DNA content in HepG2.2.15 cells). The following applies: Hepatitis B virus, HepG2.2.15, 192 h, HBV DNA by qPCR, day 8, read-out: 50% inhibitory concentration (EC50) value of HBV. It counts as cell-based. As for the experimental part:
HBV In Vitro Test in Quantitative qPCR Assay
The HBV DNA content in HepG2.2.15 cells was determined by real-time quantitative qPCR assay (real time-qPCR), and the inhibitory effect of the compound on HBV was evaluated by the EC50 value of the compound.
2.1 Cell line: HepG2.2.15 cells
3.1 HepG2.2.15 cells (4×10^4 cells/well) were seeded into a 96-well plate and incubated overnight at 37° C. under 5% CO2.
3.2 On the 2nd day, the compound was diluted into 8 concentrations with 3-time gradient. The compounds with different concentrations were added into the culture wells in duplicate wells. The final concentration of DMSO in the culture medium was 1%. 1 μM GLS4 was used as a 100% inhibition control, and 1% DMSO was used as a 0% inhibition control.
3.3 On the 5th day, the culture medium was replaced with a fresh medium containing the compound.
3.4 On the 8th day, the culture medium in the culture well was collected, and the DNA was extracted with a high-throughput DNA purification kit (Qiagen-51162), of which specific procedure was referred to the product specification.
3.6 15 μL of the reaction mixture was added into each well of a 96-well PCR plate, followed by addition of 10 μL of sample DNA or HBV DNA standards into each well.
3.7 PCR reaction conditions: heating at 95° C. for 10 minutes; then denaturation at 95° C. for 15 seconds, extension at 60° C. for 1 minute, a total of 40 cycles.
3.8.1 Calculation of the percentage of inhibition: % Inh.=[1−(DNA copy number in sample−DNA copy number in 1 μM GLS4)/(DNA copy number in DMSO control−DNA copy number in 1 μM GLS4)]×100
3.8.2 Calculation of EC50: The 50% inhibitory concentration (EC50) value of the compound on HBV was calculated by GraphPad Prism software.
(In general: Quantitative PCR measures a nucleic acid by following its amplification.)
With `O=C(NCCc1ccc(Cl)cc1)c1ccc2c(c1)NC(=O)c1cccn1S2(=O)=O` [WX301], the EC50 is ≤ 100 nM.

For the molecule `Cc1cc2n(c1)S(=O)(=O)c1ccc(C(=O)NCCc3ccc(F)cc3)cc1NC2=O` [WX305], the EC50 is ≤ 100 nM.

On to `Cc1cc2n(c1)S(=O)(=O)c1ccc(C(=O)NCc3cccnc3)cc1NC2=O` [WX306], for which the EC50 is ≤ 100 nM.

In the case of `Cc1cc2n(c1)S(=O)(=O)c1ccc(C(=O)NCc3cnc(-c4ccc(C#N)cc4)s3)cc1NC2=O` [WX308], the EC50 is ≤ 100 nM.

On to `Cc1cc2n(c1)S(=O)(=O)c1ccc(C(=O)NCCC3CCCCO3)cc1NC2=O` (centres unmarked) [WX309], for which the EC50 is ≤ 100 nM.

For the molecule `O=C(NCCC1CCCO1)c1ccc2c(c1)NC(=O)c1cc(Br)cn1S2(=O)=O` (centres unmarked) [WX311], the EC50 was ≤ 100 nM.

`O=C(NCCC1CCCCO1)c1ccc2c(c1)NC(=O)c1cc(Br)cn1S2(=O)=O` (centres unmarked) [WX312]: the EC50 was ≤ 100 nM.

For `O=C(NCCC1CCCCCO1)c1ccc2c(c1)NC(=O)c1cccn1S2(=O)=O` (centres unmarked) [WX318], the EC50 is ≤ 100 nM.

As to `O=C(NCCC1COCCOC1)c1ccc2c(c1)NC(=O)c1cccn1S2(=O)=O` [WX321], the EC50 is 100 to 500 nM.

As to `CC(=O)N1CCOC(CCNC(=O)c2ccc3c(c2)NC(=O)c2cccn2S3(=O)=O)C1` (centres unmarked) [WX322], the EC50 was ≤ 100 nM.

As to `COC(=O)N1CCOC(CCNC(=O)c2ccc3c(c2)NC(=O)c2cccn2S3(=O)=O)C1` (centres unmarked) [WX323], the EC50 is ≤ 100 nM.

`CN1CCOC(CCNC(=O)c2ccc3c(c2)NC(=O)c2cccn2S3(=O)=O)C1` (centres unmarked) [WX326]: the EC50 was ≤ 100 nM.

Consider `O=C(NCCC1COCCO1)c1ccc2c(c1)NC(=O)c1cc(CC(F)(F)F)cn1S2(=O)=O` (centres unmarked) [WX328], for which the EC50 is ≤ 100 nM.

On to `CC(C)c1cc2n(c1)S(=O)(=O)c1ccc(C(=O)NCCC3COCCO3)cc1NC2=O` (centres unmarked) [WX338], for which the EC50 fell in the range of 100 to 500 nM.
